The text below walks through data of US20250282768A1 (Janssen Pharmaceutica NV, priority 2022, published 2025).

For the test, the system named is p-IKKa levels in L363 (NIK translocated multiple myeloma) cells. Description: Assay 2: Effect of compounds on p-IKKa levels in L363 (NIK translocated multiple myeloma) cells. To be noted: Homo sapiens, L-363, 6 h, read-out: Assay 2 IC50 (nM), p-IKKa (Ser 176/180) in BAFF stimulated L363 cells with MG132, 6 h; average if tested more than once. Format: cell-based. In a few lines: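 Read-out is p-IKKa Ser176/180 by AlphaLISA SureFire in lysates. Cells were BAFF-primed (250 ng/ml) overnight or left unstimulated, then exposed 6 h at 37 °C to compound with MG132 (10 μM), 0.3% DMSO. IC50 from sigmoidal curve fit, normalized between stimulated and unstimulated controls.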

The structures appear in SMILES notation. A value given as a limit tells only on which side of the number the result lay.

With `CN1CC[C@@](O)(c2cn(-c3cccc(-c4ccnc(Nc5cn(C)nc5F)n4)n3)nn2)C1=O` [Example 325, (R)-3-(1-(6-(2-((3-Fluoro-1-methyl-1H-pyrazol-4-yl)amino)pyrimidin-4-yl)pyridin-2-yl)-1H-1,2,3-triazol-4-yl)-3-hydroxy-1-methylpyrrolidin-2-one], the IC50 lay within 50 to 500 nM.

For `Cc1nccc(Nc2nccc(-c3cccc(-n4cc([C@]5(O)CCN(C)C5=O)nn4)n3)n2)c1F` [Example 326, (R)-3-(1-(6-(2-((3-Fluoro-2-methylpyridin-4-yl)amino)pyrimidin-4-yl)pyridin-2-yl)-1H-1,2,3-triazol-4-yl)-3-hydroxy-1-methylpyrrolidin-2-one], the IC50 is under 50 nM.

Regarding `CN1CC[C@@](O)(c2cn(-c3cccc(-c4ccnc(Nc5cnn(C)c5Cl)n4)n3)nn2)C1=O` [Example 327, (R)-3-(1-(6-(2-((5-Chloro-1-methyl-1H-pyrazol-4-yl)amino)pyrimidin-4-yl)pyridin-2-yl)-1H-1,2,3-triazol-4-yl)-3-hydroxy-1-methylpyrrolidin-2-one], the IC50 is under 50 nM.

In the case of `CN1CC[C@@](O)(c2cc(-c3cccc(-c4ccnc(Nc5cnn(C)c5F)n4)n3)no2)C1=O` [Example 329, (R)-3-(3-(6-(2-((5-Fluoro-1-methyl-1H-pyrazol-4-yl)amino)pyrimidin-4-yl)pyridin-2-yl)isoxazol-5-yl)-3-hydroxy-1-methylpyrrolidin-2-one], the IC50 is under 50 nM.

For `CN1CC[C@@](O)(c2cc(-c3cccc(-c4ccnc(Nc5ccncc5F)n4)n3)no2)C1=O` [Example 330, (R)-3-(3-(6-(2-((3-Fluoropyridin-4-yl)amino)pyrimidin-4-yl)pyridin-2-yl)isoxazol-5-yl)-3-hydroxy-1-methylpyrrolidin-2-one], the IC50 was under 50 nM.

With `CN1CC[C@@](O)(c2cc(-c3cccc(-c4ccnc(Nc5ncccc5F)n4)n3)no2)C1=O` [Example 331, (R)-3-(3-(6-(2-((3-Fluoropyridin-2-yl)amino)pyrimidin-4-yl)pyridin-2-yl)isoxazol-5-yl)-3-hydroxy-1-methylpyrrolidin-2-one], the IC50 is over 500 nM.

`Cc1ccc(Nc2nccc(-c3cccc(-c4cc([C@]5(O)CCN(C)C5=O)on4)n3)n2)cn1` [Example 332, (R)-3-Hydroxy-1-methyl-3-(3-(6-(2-((6-methylpyridin-3-yl)amino)pyrimidin-4-yl)pyridin-2-yl)isoxazol-5-yl)pyrrolidin-2-one]: the IC50 fell in the range of 50 to 500 nM.

As to `Cc1ccncc1Nc1nccc(-c2cccc(-c3cc([C@]4(O)CCN(C)C4=O)on3)n2)n1` [Example 333, (R)-3-Hydroxy-1-methyl-3-(3-(6-(2-((4-methylpyridin-3-yl)amino)pyrimidin-4-yl)pyridin-2-yl)isoxazol-5-yl)pyrrolidin-2-one], the IC50 was 50 to 500 nM.

On to `Cc1nccc(Nc2nccc(-c3cccc(-c4cc([C@]5(O)CCN(C)C5=O)on4)n3)n2)c1F` [Example 334, (R)-3-(3-(6-(2-((3-Fluoro-2-methylpyridin-4-yl)amino)pyrimidin-4-yl)pyridin-2-yl)isoxazol-5-yl)-3-hydroxy-1-methylpyrrolidin-2-one], for which the IC50 was under 50 nM.

Take `CCn1cc(Nc2nccc(-c3cccc(-n4cc([C@]5(O)CCN(C)C5=O)nn4)n3)n2)cn1` [Example 335, (R)-3-(1-(6-(2-((1-Ethyl-1H-pyrazol-4-yl)amino)pyrimidin-4-yl)pyridin-2-yl)-1H-1,2,3-triazol-4-yl)-3-hydroxy-1-methylpyrrolidin-2-one]: the IC50 is under 50 nM.

Regarding `CO[C@@H]1CCOC[C@H]1Nc1nccc(-c2cccc(-c3cc([C@]4(O)CCN(C)C4=O)on3)n2)n1` [Example 338, (R)-3-Hydroxy-3-(3-(6-(2-(((trans)-4-methoxytetrahydro-2H-pyran-3-yl)amino)pyrimidin-4-yl)pyridin-2-yl)isoxazol-5-yl)-1-methylpyrrolidin-2-one], the IC50 was over 500 nM.

Take `CN1CC[C@@](O)(c2cc(-c3cccc(-c4ccnc(N[C@@H]5COC[C@@H]5F)n4)n3)no2)C1=O` [Example 339, (R)-3-(3-(6-(2-(((cis)-4-Fluorotetrahydrofuran-3-yl)amino)pyrimidin-4-yl)pyridin-2-yl)isoxazol-5-yl)-3-hydroxy-1-methylpyrrolidin-2-one]: the IC50 is 50 to 500 nM.

As to `CN1CC[C@@](O)(c2cc(-c3cccc(-c4ccnc(NCC5CCOCC5)n4)n3)no2)C1=O` [Example 340, (R)-3-Hydroxy-1-methyl-3-(3-(6-(2-(((tetrahydro-2H-pyran-4-yl)methyl)amino)pyrimidin-4-yl)pyridin-2-yl)isoxazol-5-yl)pyrrolidin-2-one], the IC50 lay within 50 to 500 nM.

On to `CN1CC[C@@](O)(c2cc(-c3cccc(-c4ccnc(N[C@@H]5COC[C@H]5F)n4)n3)no2)C1=O` [Example 342, (R)-3-(3-(6-(2-(((trans)-4-Fluorotetrahydrofuran-3-yl)amino)pyrimidin-4-yl)pyridin-2-yl)isoxazol-5-yl)-3-hydroxy-1-methylpyrrolidin-2-one], for which the IC50 fell in the range of 50 to 500 nM.

For the molecule `C[C@H](F)CCNc1nccc(-c2cccc(-c3cc([C@]4(O)CCN(C)C4=O)on3)n2)n1` [Example 344, (R)-3-(3-(6-(2-(((S)-3-Fluorobutyl)amino)pyrimidin-4-yl)pyridin-2-yl)isoxazol-5-yl)-3-hydroxy-1-methylpyrrolidin-2-one], the IC50 was 50 to 500 nM.

`CN1CC[C@@](O)(c2cc(-c3cccc(-c4ccnc(NC[C@@H]5C[C@@H]5F)n4)n3)no2)C1=O` [Example 345, (R)-3-(3-(6-(2-((((cis)-2-Fluorocyclopropyl)methyl)amino)pyrimidin-4-yl)pyridin-2-yl)isoxazol-5-yl)-3-hydroxy-1-methylpyrrolidin-2-one]: the IC50 was 50 to 500 nM.

Turning to `C[C@@H](CF)Nc1nccc(-c2cccc(-c3cc([C@]4(O)CCN(C)C4=O)on3)n2)n1` [Example 348, (R)-3-(3-(6-(2-(((S)-1-Fluoropropan-2-yl)amino)pyrimidin-4-yl)pyridin-2-yl)isoxazol-5-yl)-3-hydroxy-1-methylpyrrolidin-2-one], the IC50 was in the range of 50 to 500 nM.

As for `CN1CC[C@@](O)(c2cc(-c3cccc(-c4ccnc(N[C@H]5C[C@H](F)C5)n4)n3)no2)C1=O` [Example 349, (R)-3-(3-(6-(2-(((1r,3R)-3-Fluorocyclobutyl)amino)pyrimidin-4-yl)pyridin-2-yl)isoxazol-5-yl)-3-hydroxy-1-methylpyrrolidin-2-one], the IC50 was in the range of 50 to 500 nM.

On to `CN1CC[C@@](O)(c2cc(-c3cccc(-c4ccnc(NC5CC56CCOC6)n4)n3)no2)C1=O` (stereo partly drawn) [Example 350, (3R)-3-(3-(6-(2-((5-Oxaspiro[2.4]heptan-1-yl)amino)pyrimidin-4-yl)pyridin-2-yl)isoxazol-5-yl)-3-hydroxy-1-methylpyrrolidin-2-one], for which the IC50 was over 500 nM.

With `CO[C@H]1C[C@@H](Nc2nccc(-c3cccc(-c4cc([C@]5(O)CCN(C)C5=O)on4)n3)n2)C1` [Example 351, (R)-3-Hydroxy-3-(3-(6-(2-(((1s,3S)-3-methoxycyclobutyl)amino)pyrimidin-4-yl)pyridin-2-yl)isoxazol-5-yl)-1-methylpyrrolidin-2-one], the IC50 lay within 50 to 500 nM.

For the molecule `CCO[C@@H]1COC[C@H]1Nc1nccc(-c2cccc(-c3cc([C@]4(O)CCN(C)C4=O)on3)n2)n1` [Example 352, (R)-3-(3-(6-(2-(((trans)-4-Ethoxytetrahydrofuran-3-yl)amino)pyrimidin-4-yl)pyridin-2-yl)isoxazol-5-yl)-3-hydroxy-1-methylpyrrolidin-2-one], the IC50 was in the range of 50 to 500 nM.

Regarding `C[C@H](CF)Nc1nccc(-c2cccc(-c3cc([C@]4(O)CCN(C)C4=O)on3)n2)n1` [Example 353, (R)-3-(3-(6-(2-(((R)-1-Fluoropropan-2-yl)amino)pyrimidin-4-yl)pyridin-2-yl)isoxazol-5-yl)-3-hydroxy-1-methylpyrrolidin-2-one], the IC50 lay within 50 to 500 nM.

For the molecule `CO[C@@H]1COC[C@H]1Nc1nccc(-c2cccc(-c3cc([C@]4(O)CCN(C)C4=O)on3)n2)n1` [Example 354, (R)-3-Hydroxy-3-(3-(6-(2-(((3R,4S)-4-methoxytetrahydrofuran-3-yl)amino)pyrimidin-4-yl)pyridin-2-yl)isoxazol-5-yl)-1-methylpyrrolidin-2-one], the IC50 is 50 to 500 nM.

Take `CO[C@H](C)CNc1nccc(-c2cccc(-c3cc([C@]4(O)CCN(C)C4=O)on3)n2)n1` [Example 356, (R)-3-Hydroxy-3-(3-(6-(2-(((R)-2-methoxypropyl)amino)pyrimidin-4-yl)pyridin-2-yl)isoxazol-5-yl)-1-methylpyrrolidin-2-one]: the IC50 is 50 to 500 nM.

Turning to `CN1CC[C@@](O)(c2cc(-c3cccc(-c4ccnc(N[C@@H]5CCCC[C@@H]5O)n4)n3)no2)C1=O` [Example 357, (R)-3-Hydroxy-3-(3-(6-(2-(((1R,2S)-2-hydroxycyclohexyl)amino)pyrimidin-4-yl)pyridin-2-yl)isoxazol-5-yl)-1-methylpyrrolidin-2-one], the IC50 was over 500 nM.

For `CN1CC[C@@](O)(c2cc(-c3cccc(-c4ccnc(NC[C@H]5CCO5)n4)n3)no2)C1=O` [Example 358, (R)-3-Hydroxy-1-methyl-3-(3-(6-(2-((((R)-oxetan-2-yl)methyl)amino)pyrimidin-4-yl)pyridin-2-yl)isoxazol-5-yl)pyrrolidin-2-one], the IC50 was over 500 nM.

For the molecule `CN1CC[C@@](O)(c2cc(-c3cccc(-c4ccnc(NCCC(F)F)n4)n3)no2)C1=O` [Example 359, (R)-3-(3-(6-(2-((3,3-Difluoropropyl)amino)pyrimidin-4-yl)pyridin-2-yl)isoxazol-5-yl)-3-hydroxy-1-methylpyrrolidin-2-one], the IC50 was 50 to 500 nM.

Take `CN1CC[C@@](O)(c2cc(-c3cccc(-c4ccnc(NC[C@@H]5CCO5)n4)n3)no2)C1=O` [Example 360, (R)-3-Hydroxy-1-methyl-3-(3-(6-(2-((((S)-oxetan-2-yl)methyl)amino)pyrimidin-4-yl)pyridin-2-yl)isoxazol-5-yl)pyrrolidin-2-one]: the IC50 was over 500 nM.
